{"source": "patent US20240197695A1", "about": "“COMPOUND FOR PREVENTION OR TREATMENT OF KIDNEY DISEASE” (ONCOCROSS CO.,LTD, priority 2021, published 2024)", "assay_type_in_all_cases": "in vivo, mice (C57BL/6)", "key": {"[1]": {"test": "Drinking water intake of mice in diabetic nephrosis model", "parameters": "unit not given here", "method": "(§1) STZ (Sigma-aldrich, S0130, 40 mg/kg b.w., in 0.1 M citrate buffer pH 4.5) was intraperitoneally administered to 9-week-old male mice (C57BL/6) once/1 day for 5 days to perform a first disease induction. After 7 weeks of the first induction, a second induction was performed using the same method as the first induction. For 5 days of an STZ administration period for the first induction, 10% sucrose was administered as drinking water. In addition, after 14 days of the second administration, blood glucose levels were confirmed to confirm the induction rate, and the induced animals were separated into groups. Experimental substances (R)-4-{(R)-1-[7-(3,4,5-trimethoxy-phenyl)-[1,6] naphthyridin-5-yloxy]-ethyl}pyrrolidin-2-one (BI-1002494) and cromolyn (OC-101) were administered orally into the stomach at 10 mL/kg using an administration syringe (sonde) before 16:00 daily for 12 weeks at a frequency of 7 days/week at doses shown in Table 1 below, and dexamethasone was orally administered as a positive control substance."}, "[2]": {"test": "Feed intake of mice in diabetic nephrosis model", "parameters": "Feed intake, Mean: unit not given here", "method": "as §1"}, "[3]": {"system": "diabetic nephrosis animal models", "test": "Changes in blood glucose levels (tail vein, blood glucose level meter)", "method": "as §1\nBefore disease induction, excluding week 9 of administration of experimental substances to mice in each group of Example 1 above, after 2 weeks after the first induction (based on a first administration date), and after 6 weeks and 2 weeks of the second induction (based on the first administration date), blood was collected from the tail vein and blood glucose levels were measured using a blood glucose level meter (Accu-Check, Roche), and fasting was performed for 4 hours from 9:30 a.m. to 1:30."}}, "note": "Marks after values point to notes of the source that are not given here.", "data": [{"smiles": "COc1cc(-c2cc3ncccc3c(O[C@H](C)[C@H]3CNC(=O)C3)n2)cc(OC)c1OC", "note": "[BI-1002494, (R)-4-{(R)-1-[7-(3,4,5-trimethoxy-phenyl)-[1,6]naphthyridin-5-yloxy]-ethyl}pyrrolidin-2-one]", "values": [{"measurement": "Drinking water intake, Mean", "setting": "[1]; 12.5 mg/kg/day oral, week 0", "result": 7.80}, {"measurement": "Drinking water intake, Mean", "setting": "[1]; 12.5 mg/kg/day oral, week 1", "result": 7.91}, {"measurement": "Drinking water intake, Mean", "setting": "[1]; 12.5 mg/kg/day oral, week 2", "result": 7.41}, {"measurement": "Drinking water intake, Mean", "setting": "[1]; 12.5 mg/kg/day oral, week 3", "result": 7.39}, {"measurement": "Drinking water intake, Mean", "setting": "[1]; 12.5 mg/kg/day oral, week 4", "result": 7.38}, {"measurement": "Drinking water intake, Mean", "setting": "[1]; 12.5 mg/kg/day oral, week 5", "result": 7.16}, {"measurement": "Drinking water intake, Mean", "setting": "[1]; 12.5 mg/kg/day oral, week 6", "result": 7.34}, {"measurement": "Drinking water intake, Mean", "setting": "[1]; 12.5 mg/kg/day oral, week 7", "result": 7.24}, {"measurement": "Drinking water intake, Mean", "setting": "[1]; 12.5 mg/kg/day oral, week 8", "result": 6.99}, {"measurement": "Drinking water intake, Mean", "setting": "[1]; 12.5 mg/kg/day oral, week 9", "result": 7.40}, {"measurement": "Drinking water intake, Mean", "setting": "[1]; 12.5 mg/kg/day oral, week 10", "result": 7.46}, {"measurement": "Drinking water intake, Mean", "setting": "[1]; 25 mg/kg/day oral, week 0", "result": 7.07}, {"measurement": "Drinking water intake, Mean", "setting": "[1]; 25 mg/kg/day oral, week 1", "result": 7.62}, {"measurement": "Drinking water intake, Mean", "setting": "[1]; 25 mg/kg/day oral, week 2", "result": 7.86}, {"measurement": "Drinking water intake, Mean", "setting": "[1]; 25 mg/kg/day oral, week 3", "result": 7.38}, {"measurement": "Drinking water intake, Mean", "setting": "[1]; 25 mg/kg/day oral, week 4", "result": 6.73}, {"measurement": "Drinking water intake, Mean", "setting": "[1]; 25 mg/kg/day oral, week 5", "result": 7.19}, {"measurement": "Drinking water intake, Mean", "setting": "[1]; 25 mg/kg/day oral, week 6", "result": 7.34}, {"measurement": "Drinking water intake, Mean", "setting": "[1]; 25 mg/kg/day oral, week 7", "result": 7.69}, {"measurement": "Drinking water intake, Mean", "setting": "[1]; 25 mg/kg/day oral, week 8", "result": 7.43}, {"measurement": "Drinking water intake, Mean", "setting": "[1]; 25 mg/kg/day oral, week 9", "result": 7.54}, {"measurement": "Drinking water intake, Mean", "setting": "[1]; 25 mg/kg/day oral, week 10", "result": 7.15}, {"measurement": "Drinking water intake, Mean", "setting": "[1]; 50 mg/kg/day oral, week 0", "result": 7.27}, {"measurement": "Drinking water intake, Mean", "setting": "[1]; 50 mg/kg/day oral, week 1", "result": 7.04}, {"measurement": "Drinking water intake, Mean", "setting": "[1]; 50 mg/kg/day oral, week 2", "result": 6.07}, {"measurement": "Drinking water intake, Mean", "setting": "[1]; 50 mg/kg/day oral, week 3", "result": 6.96}, {"measurement": "Drinking water intake, Mean", "setting": "[1]; 50 mg/kg/day oral, week 4", "result": 7.13}, {"measurement": "Drinking water intake, Mean", "setting": "[1]; 50 mg/kg/day oral, week 5", "result": 6.48}, {"measurement": "Drinking water intake, Mean", "setting": "[1]; 50 mg/kg/day oral, week 6", "result": 6.93}, {"measurement": "Drinking water intake, Mean", "setting": "[1]; 50 mg/kg/day oral, week 7", "result": 6.39}, {"measurement": "Drinking water intake, Mean", "setting": "[1]; 50 mg/kg/day oral, week 8", "result": 6.91}, {"measurement": "Drinking water intake, Mean", "setting": "[1]; 50 mg/kg/day oral, week 9", "result": 6.61}, {"measurement": "Drinking water intake, Mean", "setting": "[1]; 50 mg/kg/day oral, week 10", "result": 6.22}, {"measurement": "Feed intake compared to the disease control group", "setting": "[2]; 12.5 mg/kg administered group, after week 4 of administration", "result": "statistically significantly decreased"}, {"measurement": "Feed intake, Mean", "setting": "[2]; 12.5 mg/kg/day oral, week 0", "result": 6.97}, {"measurement": "Feed intake, Mean", "setting": "[2]; 12.5 mg/kg/day oral, week 1", "result": 5.61}, {"measurement": "Feed intake, Mean", "setting": "[2]; 12.5 mg/kg/day oral, week 2", "result": 6.23}, {"measurement": "Feed intake, Mean", "setting": "[2]; 12.5 mg/kg/day oral, week 3", "result": 4.58}, {"measurement": "Feed intake, Mean", "setting": "[2]; 12.5 mg/kg/day oral, week 4", "result": "5.14^#"}, {"measurement": "Feed intake, Mean", "setting": "[2]; 12.5 mg/kg/day oral, week 5", "result": 4.98}, {"measurement": "Feed intake, Mean", "setting": "[2]; 12.5 mg/kg/day oral, week 6", "result": 5.31}, {"measurement": "Feed intake, Mean", "setting": "[2]; 12.5 mg/kg/day oral, week 7", "result": 5.21}, {"measurement": "Feed intake, Mean", "setting": "[2]; 12.5 mg/kg/day oral, week 8", "result": 4.26}, {"measurement": "Feed intake, Mean", "setting": "[2]; 12.5 mg/kg/day oral, week 9", "result": 4.39}, {"measurement": "Feed intake, Mean", "setting": "[2]; 12.5 mg/kg/day oral, week 10", "result": 4.64}, {"measurement": "Feed intake compared to the disease control group", "setting": "[2]; 25 mg/kg administered group, after week 6 of administration", "result": "statistically significantly decreased"}, {"measurement": "Feed intake, Mean", "setting": "[2]; 25 mg/kg/day oral, week 0", "result": 6.73}, {"measurement": "Feed intake, Mean", "setting": "[2]; 25 mg/kg/day oral, week 1", "result": 5.63}, {"measurement": "Feed intake, Mean", "setting": "[2]; 25 mg/kg/day oral, week 2", "result": 5.59}, {"measurement": "Feed intake, Mean", "setting": "[2]; 25 mg/kg/day oral, week 3", "result": 5.26}, {"measurement": "Feed intake, Mean", "setting": "[2]; 25 mg/kg/day oral, week 4", "result": 4.99}, {"measurement": "Feed intake, Mean", "setting": "[2]; 25 mg/kg/day oral, week 5", "result": 5.15}, {"measurement": "Feed intake, Mean", "setting": "[2]; 25 mg/kg/day oral, week 6", "result": "5.51^#"}, {"measurement": "Feed intake, Mean", "setting": "[2]; 25 mg/kg/day oral, week 7", "result": 5.04}, {"measurement": "Feed intake, Mean", "setting": "[2]; 25 mg/kg/day oral, week 8", "result": 4.95}, {"measurement": "Feed intake, Mean", "setting": "[2]; 25 mg/kg/day oral, week 9", "result": 4.62}, {"measurement": "Feed intake, Mean", "setting": "[2]; 25 mg/kg/day oral, week 10", "result": 4.63}, {"measurement": "Feed intake compared to the disease control group", "setting": "[2]; 50 mg/kg administered group, after week 8 of administration", "result": "statistically significantly decreased"}, {"measurement": "Feed intake, Mean", "setting": "[2]; 50 mg/kg/day oral, week 0", "result": 5.98}, {"measurement": "Feed intake, Mean", "setting": "[2]; 50 mg/kg/day oral, week 1", "result": 5.74}, {"measurement": "Feed intake, Mean", "setting": "[2]; 50 mg/kg/day oral, week 2", "result": 4.98}, {"measurement": "Feed intake, Mean", "setting": "[2]; 50 mg/kg/day oral, week 3", "result": 5.36}, {"measurement": "Feed intake, Mean", "setting": "[2]; 50 mg/kg/day oral, week 4", "result": 5.14}, {"measurement": "Feed intake, Mean", "setting": "[2]; 50 mg/kg/day oral, week 5", "result": 4.89}, {"measurement": "Feed intake, Mean", "setting": "[2]; 50 mg/kg/day oral, week 6", "result": 5.64}, {"measurement": "Feed intake, Mean", "setting": "[2]; 50 mg/kg/day oral, week 7", "result": 5.11}, {"measurement": "Feed intake, Mean", "setting": "[2]; 50 mg/kg/day oral, week 8", "result": "4.86^#"}, {"measurement": "Feed intake, Mean", "setting": "[2]; 50 mg/kg/day oral, week 9", "result": 4.30}, {"measurement": "Feed intake, Mean", "setting": "[2]; 50 mg/kg/day oral, week 10", "result": 4.14}, {"measurement": "Blood glucose level, Mean", "setting": "[3]; 12.5 mg/kg/day oral, week 0, 4 h fasting, in mg/dL (unit assumed)", "result": 291.1}, {"measurement": "Blood glucose level, Mean", "setting": "[3]; 12.5 mg/kg/day oral, week 2, 4 h fasting, in mg/dL (unit assumed)", "result": 319.5}, {"measurement": "Blood glucose level, Mean", "setting": "[3]; 12.5 mg/kg/day oral, week 4, 4 h fasting", "result": "225.1^#"}, {"measurement": "Blood glucose level, Mean", "setting": "[3]; 12.5 mg/kg/day oral, week 6, 4 h fasting", "result": "261.8^#"}, {"measurement": "Blood glucose level, Mean", "setting": "[3]; 12.5 mg/kg/day oral, week 8, 4 h fasting", "result": "270.4^#"}, {"measurement": "Blood glucose level, Mean", "setting": "[3]; 12.5 mg/kg/day oral, week 10, 4 h fasting", "result": "280.8^#"}, {"measurement": "Blood glucose level, Mean", "setting": "[3]; 25 mg/kg/day oral, week 0, 4 h fasting, in mg/dL (unit assumed)", "result": 301.2}, {"measurement": "Blood glucose level, Mean", "setting": "[3]; 25 mg/kg/day oral, week 2, 4 h fasting, in mg/dL (unit assumed)", "result": 310.1}, {"measurement": "Blood glucose level, Mean", "setting": "[3]; 25 mg/kg/day oral, week 4, 4 h fasting", "result": "218.6^#"}, {"measurement": "Blood glucose level, Mean", "setting": "[3]; 25 mg/kg/day oral, week 6, 4 h fasting", "result": "257.8^#"}, {"measurement": "Blood glucose level, Mean", "setting": "[3]; 25 mg/kg/day oral, week 8, 4 h fasting", "result": "279.1^#"}, {"measurement": "Blood glucose level, Mean", "setting": "[3]; 25 mg/kg/day oral, week 10, 4 h fasting", "result": "255.9^#"}, {"measurement": "Blood glucose level, Mean", "setting": "[3]; 50 mg/kg/day oral, week 0, 4 h fasting, in mg/dL (unit assumed)", "result": 303.7}, {"measurement": "Blood glucose level, Mean", "setting": "[3]; 50 mg/kg/day oral, week 2, 4 h fasting, in mg/dL (unit assumed)", "result": 264.5}, {"measurement": "Blood glucose level, Mean", "setting": "[3]; 50 mg/kg/day oral, week 4, 4 h fasting", "result": "201.0^#"}, {"measurement": "Blood glucose level, Mean", "setting": "[3]; 50 mg/kg/day oral, week 6, 4 h fasting", "result": "199.6^#"}, {"measurement": "Blood glucose level, Mean", "setting": "[3]; 50 mg/kg/day oral, week 8, 4 h fasting", "result": "200.9^#"}, {"measurement": "Blood glucose level, Mean", "setting": "[3]; 50 mg/kg/day oral, week 10, 4 h fasting", "result": "187.3^#"}, {"measurement": "Blood glucose levels compared to those of the positive control group", "setting": "[3]; administered group (12.5, 25, 50 mg/kg)", "result": "decreased significantly"}, {"measurement": "Blood glucose levels, summary", "setting": "[3]; after induction of diabetic renal diseases", "result": "decreased in a dose-dependent manner"}]}]}
